± gives the expanded uncertainty stated by the source.
Test: activity coefficient (dimensionless); of the first substance listed, at infinite dilution; xn = mol fraction of the nth substance listed
Settings: Liquid, x1 = 0

Compound	activity coefficient (249.99 K)	activity coefficient (270 K)	activity coefficient (290 K)	activity coefficient (310 K)	activity coefficient (330 K)	activity coefficient (250.01 K)	activity coefficient (270.04 K)	activity coefficient (290.01 K)	activity coefficient (310.01 K)	activity coefficient (249.97 K)	activity coefficient (269.99 K)	activity coefficient (249.96 K)
C=CC=C [1,3-butadiene] + CCC(C)O	3.5 ± 0.1	3.4 ± 0.1	3.2 ± 0.1	3 ± 0.1	2.8 ± 0.1							
C=CC=C [1,3-butadiene] + CCCCO					2.8 ± 0.1	3 ± 0.1	2.9 ± 0.1	2.9 ± 0.1	2.9 ± 0.1			
C=CCC [1-butene] + CCC(C)O			3.5 ± 0.1	3.3 ± 0.1	3.1 ± 0.1					3.7 ± 0.1	3.6 ± 0.1	
C=CCC [1-butene] + CCCCO		3.4 ± 0.1		3.3 ± 0.1	3.2 ± 0.1	3.5 ± 0.1		3.4 ± 0.1				
CC(C)C [2-methylpropane] + CCC(C)O		4.3 ± 0.1	4.2 ± 0.1	4.1 ± 0.1	3.8 ± 0.1					4.4 ± 0.1		
CC(C)C [2-methylpropane] + CCCCO					4.1 ± 0.1	4.4 ± 0.1	4.4 ± 0.1	4.3 ± 0.1	4.3 ± 0.1			
C=C(C)C [2-methylpropene] + CCC(C)O	3.7 ± 0.1	3.5 ± 0.1	3.4 ± 0.1	3.2 ± 0.1	3 ± 0.1							
C=C(C)C [2-methylpropene] + CCCCO					3.2 ± 0.1	3.4 ± 0.1	3.4 ± 0.1	3.4 ± 0.1	3.3 ± 0.1			
C/C=C/C [(E)-2-butene] + CCC(C)O			3.5 ± 0.1	3.3 ± 0.1	3.1 ± 0.1					3.7 ± 0.1	3.6 ± 0.1	
C/C=C/C [(E)-2-butene] + CCCCO		3.4 ± 0.1		3.3 ± 0.1	3.3 ± 0.1	3.4 ± 0.1		3.4 ± 0.1				

Continued, values first:

activity coefficient (249.99 K)	activity coefficient (270 K)	activity coefficient (290 K)	activity coefficient (310 K)	activity coefficient (330 K)	activity coefficient (250.01 K)	activity coefficient (270.04 K)	activity coefficient (290.01 K)	activity coefficient (310.01 K)	activity coefficient (249.97 K)	activity coefficient (269.99 K)	activity coefficient (249.96 K)	Compound
	4.1 ± 0.1	4 ± 0.1	3.9 ± 0.1	3.6 ± 0.1							4.2 ± 0.1	CCCC [butane] + CCC(C)O
				3.9 ± 0.1	4.1 ± 0.1	4.1 ± 0.1	4.1 ± 0.1	4 ± 0.1				CCCC [butane] + CCCCO
		3.5 ± 0.1	3.5 ± 0.1	3.3 ± 0.1					3.6 ± 0.1	3.5 ± 0.1		CCC [propane] + CCC(C)O
	3.6 ± 0.1		3.6 ± 0.1	3.6 ± 0.1	3.6 ± 0.1		3.6 ± 0.1					CCC [propane] + CCCCO
		3.1 ± 0.1	3 ± 0.1	2.8 ± 0.1					3.1 ± 0.1	3.1 ± 0.1		C=CC [propene] + CCC(C)O
3 ± 0.1	3 ± 0.1		3 ± 0.1	3 ± 0.1			3 ± 0.1					C=CC [propene] + CCCCO

Reference: the NIST ThermoML archive (doi:10.1021/je034265f)
